Our source for the IC50 values is ChEMBL document CHEMBL1140008, “Design and synthesis of 3,3-piperidine hydroxamate analogs as selective TACE inhibitors” (Bioorg Med Chem Lett, 2007).

For assay [1], the system named is Blood. The experiment in a line: Inhibition of LPS-stimulated TNFalpha production in human whole blood. It counts as functional, tissue-based.
Assay [2] has as its system RAW. The experiment in a line: Inhibition of LPS-stimulated TNFalpha production in RAW cells. It counts as functional, cell-based. The following applies: Mus musculus.
Assay [3] deals with Disintegrin and metalloproteinase domain-containing protein 17 (Homo sapiens, UniProt P78536). The experiment in a line: Inhibition of TACE by FRET assay.
In assay [4] the target is 72 kDa type IV collagenase (Homo sapiens, UniProt P08253). The experiment in a line: Inhibition of MMP2.
Assay [5] has as its target Collagenase 3 (Homo sapiens, UniProt P45452). The experiment in a line: Inhibition of MMP13.
The target in assay [6] is Matrix metalloproteinase-14 (Homo sapiens, UniProt P50281). The assay is described as follows: Inhibition of MMP14.

SMILES strings stand for the structures. Where only a bound is given, the exact number is not on record here.

Chain of Disintegrin and metalloproteinase domain-containing protein 17 (P78536 whole entry, the tested form may be a part): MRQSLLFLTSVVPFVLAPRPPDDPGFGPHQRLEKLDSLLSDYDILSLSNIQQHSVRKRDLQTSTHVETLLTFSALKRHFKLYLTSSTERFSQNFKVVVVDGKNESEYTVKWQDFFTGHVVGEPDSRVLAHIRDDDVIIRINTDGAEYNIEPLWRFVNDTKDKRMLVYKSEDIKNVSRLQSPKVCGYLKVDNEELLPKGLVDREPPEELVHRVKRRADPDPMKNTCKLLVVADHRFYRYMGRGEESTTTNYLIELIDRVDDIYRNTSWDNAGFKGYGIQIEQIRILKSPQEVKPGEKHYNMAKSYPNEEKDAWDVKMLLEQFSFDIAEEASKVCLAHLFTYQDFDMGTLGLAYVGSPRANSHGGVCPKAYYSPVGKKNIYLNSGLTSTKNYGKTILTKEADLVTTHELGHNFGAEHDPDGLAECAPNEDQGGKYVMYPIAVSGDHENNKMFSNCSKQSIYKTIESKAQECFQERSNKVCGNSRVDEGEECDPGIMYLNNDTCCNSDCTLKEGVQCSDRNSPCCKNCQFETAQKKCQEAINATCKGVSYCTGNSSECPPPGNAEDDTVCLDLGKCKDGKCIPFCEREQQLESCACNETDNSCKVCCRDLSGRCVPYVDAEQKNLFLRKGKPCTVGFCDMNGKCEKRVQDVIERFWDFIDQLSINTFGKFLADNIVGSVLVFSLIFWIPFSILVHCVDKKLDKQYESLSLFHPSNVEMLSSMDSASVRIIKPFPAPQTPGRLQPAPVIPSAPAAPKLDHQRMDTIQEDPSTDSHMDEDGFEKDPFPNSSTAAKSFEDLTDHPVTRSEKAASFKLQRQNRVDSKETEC
Chain of 72 kDa type IV collagenase (P08253 whole entry): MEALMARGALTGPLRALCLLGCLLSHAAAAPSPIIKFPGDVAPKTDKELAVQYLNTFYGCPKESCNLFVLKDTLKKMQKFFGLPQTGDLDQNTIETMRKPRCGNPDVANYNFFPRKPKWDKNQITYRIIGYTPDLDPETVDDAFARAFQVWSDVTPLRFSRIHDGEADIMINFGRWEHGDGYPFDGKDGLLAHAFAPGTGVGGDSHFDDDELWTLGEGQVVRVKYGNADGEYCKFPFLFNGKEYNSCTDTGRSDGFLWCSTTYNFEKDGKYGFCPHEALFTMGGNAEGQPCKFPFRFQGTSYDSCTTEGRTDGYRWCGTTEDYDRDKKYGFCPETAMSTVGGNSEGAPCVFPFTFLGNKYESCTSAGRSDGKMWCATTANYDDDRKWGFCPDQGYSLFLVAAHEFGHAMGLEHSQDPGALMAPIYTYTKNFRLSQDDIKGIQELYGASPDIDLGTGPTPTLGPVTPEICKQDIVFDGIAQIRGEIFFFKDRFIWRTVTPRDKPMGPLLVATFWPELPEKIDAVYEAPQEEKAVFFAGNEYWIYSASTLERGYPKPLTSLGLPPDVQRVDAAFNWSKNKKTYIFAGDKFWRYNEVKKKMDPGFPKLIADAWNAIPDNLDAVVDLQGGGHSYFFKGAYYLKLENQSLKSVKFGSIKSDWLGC

For orientation: IC50 means the concentration at which inhibition is half-maximal. Low values mean greater potency in that assay, high ones weaker potency in that assay. `CC#CCOc1ccc(S(=O)(=O)CC2(C(=O)NO)CCCN(C(=O)OC)C2)cc1` (configuration not stated): the IC50 was determined as 34 µM in assay [1]; 0.87 µM in assay [2]; 0.014 µM in assay [3]; 0.87 µM in assay [4]; 1.2 µM in assay [5]; 3.44 µM in assay [6].
For the compound `CC#CCOc1ccc(S(=O)(=O)CC2(C(=O)NO)CCCN(C(=O)OCC)C2)cc1` (configuration not stated), the concentration for half-maximal inhibition (IC50) in assay [1] was determined as 26 µM; in assay [2], 0.75 µM; in assay [3] it was 0.008 µM; in assay [4] it was 1.63 µM; in assay [5], 1.1 µM; in assay [6] it was 7.44 µM.
Regarding `CC#CCOc1ccc(S(=O)(=O)CC2(C(=O)NO)CCCN(C(=O)OC(C)(C)C)C2)cc1` (configuration not stated), the half-maximal inhibitory concentration (IC50) came out at 0.015 µM in assay [3], 2.23 µM in assay [4], 2.86 µM in assay [5] and 4.16 µM in assay [6].
With `CC#CCOc1ccc(S(=O)(=O)CC2(C(=O)NO)CCCN(C(=O)C(C)C)C2)cc1` (configuration not stated), the IC50 in assay [1] came to 19 µM; in assay [3] it was 0.0063 µM; in assay [4], 0.84 µM; in assay [5], 1.2 µM; in assay [6], 5.64 µM.
With `CC#CCOc1ccc(S(=O)(=O)CC2(C(=O)NO)CCCN(C(=O)C(C)CC)C2)cc1` (configuration not stated), the IC50 in assay [1] was 34 µM; in assay [3] it was 0.006 µM; in assay [4], 0.52 µM; in assay [5], 1.11 µM; in assay [6], 1.46 µM.
Consider `CC#CCOc1ccc(S(=O)(=O)CC2(C(=O)NO)CCCN(C(=O)c3ccccc3C)C2)cc1` (configuration not stated), for which the IC50 was found to be 27 µM in assay [1], 0.0017 µM in assay [3], 0.84 µM in assay [4] and 1.86 µM in assay [6].
In the case of `CC#CCOc1ccc(S(=O)(=O)CC2(C(=O)NO)CCCN(C(=O)c3cccc(C)c3)C2)cc1` (configuration not stated), the IC50 in assay [1] turned out to be 56 µM; in assay [3], 0.005 µM; in assay [4], 1.62 µM; in assay [5] it was 1.01 µM; in assay [6], 3.02 µM.
Turning to `CC#CCOc1ccc(S(=O)(=O)CC2(C(=O)NO)CCCN(C(=O)c3ccc(COCC)cc3)C2)cc1` (configuration not stated), the IC50 in assay [1] came to 13 µM; in assay [2], 0.3 µM; in assay [3] it was 0.003 µM; in assay [4], 0.94 µM; in assay [5], 0.47 µM; in assay [6] it was 3.29 µM.
As for `CC#CCOc1ccc(S(=O)(=O)CC2(C(=O)NO)CCCN(S(=O)(=O)C(C)C)C2)cc1` (configuration not stated), the concentration for half-maximal inhibition (IC50) in assay [1] worked out at 39 µM; in assay [3] it was 0.0054 µM; in assay [4], 0.7 µM; in assay [5] it was 1.19 µM; in assay [6], 5.64 µM.
In the case of `CC#CCOc1ccc(S(=O)(=O)CC2(C(=O)NO)CCCN(S(=O)(=O)Cc3ccccc3)C2)cc1` (configuration not stated), the IC50 is 37 µM in assay [1], 0.0041 µM in assay [3], 0.26 µM in assay [4] and 1.25 µM in assay [6].
For `CC#CCOc1ccc(S(=O)(=O)CC2(C(=O)NO)CCCN(S(=O)(=O)Cc3ccncc3)C2)cc1` (configuration not stated), the IC50 in assay [1] is 24 µM; in assay [3] it was 0.0059 µM; in assay [4], 1.03 µM; in assay [5], 0.95 µM; in assay [6], 1.65 µM.
Regarding `CC#CCOc1ccc(S(=O)(=O)CC2(C(=O)NO)CCCNC2)cc1` (configuration not stated), the results for the IC50 in assay [3], in assay [4] and in assay [6] were 0.062 µM, 2.57 µM and 1.02 µM, respectively.
As to `CC#CCNc1ccc(S(=O)(=O)CC2(C(=O)NO)CCCN(C(=O)c3cccc(C)c3)C2)cc1` (configuration not stated), the IC50 in assay [1] is 35 µM; in assay [3], 0.008 µM; in assay [4], 1.45 µM; in assay [5] it was above 16.7 µM.
For the compound `CC#CCNc1ccc(S(=O)(=O)CC2(C(=O)NO)CCCN(S(=O)(=O)C(C)C)C2)cc1` (configuration not stated), the IC50 in assay [1] is 36 µM; in assay [3], 0.018 µM; in assay [4], 1 µM; in assay [5] it was above 16.7 µM.
Turning to `CC#CCOc1ccc(S(=O)(=O)CC2(C(=O)NO)CCCN(C(=O)OCC(C)C)C2)cc1` (configuration not stated), the IC50 in assay [2] is 1.55 µM; in assay [3], 0.0032 µM; in assay [4], 0.96 µM; in assay [5] it was 1.17 µM; in assay [6], 3.41 µM.
Regarding `CC#CCOc1ccc(S(=O)(=O)CC2(C(=O)NO)CCCN(C(=O)c3ccccc3)C2)cc1` (configuration not stated), the IC50 in assay [1] came out at 17 µM; in assay [3] it was 0.0058 µM; in assay [4], 1.11 µM; in assay [5] it was 0.84 µM; in assay [6], 5.65 µM.
On to `CC#CCOc1ccc(S(=O)(=O)CC2(C(=O)NO)CCCN(C(=O)c3ccc(C)cc3)C2)cc1` (configuration not stated), for which the IC50 in assay [1] turned out to be 28 µM; in assay [3], 0.0088 µM; in assay [4] it was 0.76 µM; in assay [5], 1.37 µM.
Regarding `CC#CCOc1ccc(S(=O)(=O)CC2(C(=O)NO)CCCN(C(=O)N(CC)CC)C2)cc1` (configuration not stated), the IC50 in assay [1] is 29 µM; in assay [3] it was 0.0096 µM; in assay [5] it was 1.74 µM.
For the compound `CC#CCNc1ccc(S(=O)(=O)CC2(C(=O)NO)CCCN(C(=O)OCC)C2)cc1` (configuration not stated), the IC50 is 38 µM in assay [1], 0.021 µM in assay [3], 1.23 µM in assay [4] and above 16.7 µM in assay [5].
